Results published in US20090214607A1, “Topical use of teprenone” (SEDERMA, priority 2005, published 2009).

Experiments:
catalase = assay: Catalase activity in human skin explants after UVB (Clairborne-Aebi method); format: cell-based; settings: for protective effect on enzymatic activity of catalase: vs UVB; for catalase activity: after UVB 2 J/cm2
Procedure: Human skin explants obtained from a patient having undergone plastic surgery were cultured with or without teprenone or Trolox (positive control) for 48 hours then exposed to UV B radiation (2 J/cm^2). After irradiation, the explants were again cultured in fresh medium with or without teprenone or Trolox for 24 hours. Similars explants were also used in immunolabeling tests on heat shock proteins (HSP) and in the apoptosis study.
Catalase anti-oxidant activity was determined by the Clairborne-Aebi method. Hydrogen peroxide (H2O2) consumption is directly proportional to catalase activity. The consumption was determined by spectrophotometry at 240 nm

Hsp70 = Hsp70 immunolabeling in UVB-irradiated human skin explants; format: cell-based; settings: for Number of Hsp70 positive cells/cm: UVB 2 J/cm2, n = 3
Description: Heat Schock proteins (Hsp) are cellular protective molecules which contribute to the correct proteinic folding, thus preserving the protein activity. Hsp 27 is a protective chaperone protein very present in the keratinocytes at the basal state. In situation of UV stress, cell increases its rate of protection and Hsp 27 is strongly overexpressed. Hsp70 is a chaperone protein less expressed in a basal state but induced in response to the UV, thermics, mechanics or infectious stress.
Human skin explants are treated in a similar way to the previous experiment (protection on the catalase activity): taken from a plastic surgery, they are cultivated for 48 h in the presence or not, for control, of teprenone (or trolox) at various concentrations, then irradiated or not using a source UVB (2 J/cm2). After irradiation skin explants were post-treated (24 h) or not with teprenone (or trolox) at the same concentrations.
Explants were embedded in OCT, sectioned using a freezing microtome, and slide mounted. The mounted specimens were immunolabeled with anti-human Hsp antibody.

[1] = system: Normal human fibroblasts (FHN); assay: Replicative capacity of serially sub-cultured fibroblasts; format: cell-based
Description: Normal human fibroblasts are able to divide a limited number of times: according to the literature, 30 times approximately. Progressively, the cells change morphology and become less and less suited to the mitosis: time between 2 mitoses lengthens, the cellular metabolism is very slowed down, the cells are known as senescent.
Normal human fibroblasts (FHN) are cultivated until the “12th cycle” in order to begin the tests with cells already part-time from the duration life (=12 cycles of replication on 30 cycles), they are then separate in 3 batches: The batch control, the batch treated daily by 1 μM of teprenone and the batch daily treated with 3 μM of teprenone.
Each plate contains ˜50 000 cells and the cells cultivated in medium DMEM, until confluency or until obtaining enough cells for the taking away of 50 000 cells necessary to the following cycle. At each time the cells are collected by trypsinisation, are counted, and aliquot of 50 000 cells seeded for the following cycle. This cycle is repeated until it is no more possible to obtain cellular multiplication.

VEGF = VEGF in supernatant of γ-irradiated NHEK cells (ELISA); format: cell-based, human; settings: for decrease of VEGF: vs irradiated control; for expression VEGF: γ-irradiation 5 Gγ, 4 days
Procedure: In order to determine the action of teprenone as per the invention, the effect of GGA on the IL8 and VEGF expression was investigated in the supernatants of irradiated (with 5 Gy) NHEK cells. After γ-irradiation, NHEK cells are treated during 4 days with or without GGA at differents concentrations. The amount of IL8 and VEGF present in the cells supernatant is determined with ELISA method.

## CC(=O)CCC=C(C)CCC=C(C)CCC=C(C)CCC=C(C)C [Teprenone, 6,10,14,18-tetramethyl-5,9,13-nonadecatetren-2-one]
catalase; 0.05 mM
  protective effect on enzymatic activity of catalase: +40%
  catalase activity: 125 UI/mg of protein
catalase; 0.1 mM
  protective effect on enzymatic activity of catalase: +45%
  catalase activity: 130 UI/mg of protein
Hsp70; 0.05 mM
  Hsp70: Protection vs. irradiated (%): 66%
  Number of Hsp70 positive cells/cm: 130 cells/cm
Hsp70; 0.1 mM
  Hsp70: Protection vs. irradiated (%): 100%
  Number of Hsp70 positive cells/cm: 40 cells/cm
Hsp70; 0.1 mM, listed as GGA
  Hsp70: Protection vs. irradiated (%): 100%
[1]; 1 μM
  cycle until which the fibroblasts remained more active: 22
  entry into marked senescence, later than the controls: 44 days
[1]; 1 μM, cycle 13 (7 d)
  Nb cells (×10^3): 204 ×10^3
[1]; 1 μM, cycle 14 (8 d)
  Nb cells (×10^3): 214 ×10^3
[1]; 1 μM, cycle 15 (11 d)
  Nb cells (×10^3): 199 ×10^3
[1]; 1 μM, cycle 16 (14 d)
  Nb cells (×10^3): 186 ×10^3
[1]; 1 μM, cycle 17 (13 d)
  Nb cells (×10^3): 164 ×10^3
[1]; 1 μM, cycle 18 (18 d)
  Nb cells (×10^3): 197 ×10^3
[1]; 1 μM, cycle 19 (17 ds)
  Nb cells (×10^3): 185 ×10^3
[1]; 1 μM, cycle 20 (14 d)
  Nb cells (×10^3): 124 ×10^3
  Replicative capac vs control: +13
[1]; 1 μM, cycle 21 (22 d)
  Nb cells (×10^3): 130 ×10^3
  Replicative capac vs control: +38
[1]; 1 μM, cycle 22 (20 d)
  Nb cells (×10^3): 146 ×10^3
  Replicative capac vs control: +117
[1]; 1 μM, cycle 23 (36 d)
  Nb cells (×10^3): 105 ×10^3
  Replicative capac vs control: +25
[1]; 1 μM, cycle 24 (28 d)
  Nb cells (×10^3): 66 ×10^3
  Replicative capac vs control: ns
[1]; 1 μM, cycle 25 (77 d)
  Nb cells (×10^3): 59 ×10^3
  Replicative capac vs control: ns
[1]; 3 μM
  cycle until which the fibroblasts retained their replicative potential: 24
  fibroblast lifetime extended with no impairment of replicative capacity: 100 days
  replicative potential retained, later than the controls: 100 days
[1]; 3 μM, after cycle 24
  activity of treated cells vs control cells after replicative potential began to subside: almost two-fold more active than the control cells
[1]; 3 μM, cycle 13 (7 d)
  Nb cells (×10^3): 213 ×10^3
[1]; 3 μM, cycle 14 (8 d)
  Nb cells (×10^3): 195 ×10^3
[1]; 3 μM, cycle 15 (11 d)
  Nb cells (×10^3): 140 ×10^3
[1]; 3 μM, cycle 16 (14 d)
  Nb cells (×10^3): 167 ×10^3
[1]; 3 μM, cycle 17 (13 d)
  Nb cells (×10^3): 166 ×10^3
[1]; 3 μM, cycle 18 (18 d)
  Nb cells (×10^3): 192 ×10^3
[1]; 3 μM, cycle 19 (17 ds)
  Nb cells (×10^3): 198 ×10^3
[1]; 3 μM, cycle 20 (14 d)
  Nb cells (×10^3): 145 ×10^3
  Replicative capac vs control: +33
[1]; 3 μM, cycle 21 (22 d)
  Nb cells (×10^3): 154 ×10^3
  Replicative capac vs control: +64
[1]; 3 μM, cycle 22 (20 d)
  Nb cells (×10^3): 157 ×10^3
  Replicative capac vs control: +134
[1]; 3 μM, cycle 23 (36 d)
  Nb cells (×10^3): 204 ×10^3
  Replicative capac vs control: +99
[1]; 3 μM, cycle 24 (28 d)
  Nb cells (×10^3): 115 ×10^3
  Replicative capac vs control: +79
[1]; 3 μM, cycle 25 (77 d)
  Nb cells (×10^3): 95 ×10^3
  Replicative capac vs control: 82
VEGF; 1 · 10^−4%
  decrease of VEGF: −47%
  expression VEGF: 3 pg/10⁵ cells
VEGF; 3 · 10^−5%
  decrease of VEGF: −30%
  expression VEGF: 3.5 pg/10⁵ cells
